Experiment [1] has as its system NCI-H460. As to the kind of experiment: Cell cycle DNA content assay (flow cytometry). It is filed as cell-based. Conditions: Homo sapiens, 24 h; NCI-H460, Lung, Parent line; read-out: EC50 @ 24 hours, Sub G1. The procedure:
(§1) NCI-H460 parental and NCI-H460 taxol-resistant cells were seeded at a density of 500,000 cells/well in a 6-well plate in 2 mL of appropriate complete media. The next day cells were treated with AMG 900 or taxol over a 6-point concentration range with a final DMSO concentration of 0.05% in media. After 24 hours, cells were pulsed with BrdU (1:100 dilution) and harvested. Cells were centrifuged at 1600 rpm for 4 minutes and the supernatant was aspirated. Cells were washed in 1× PBS and fixed in 900 μL of ice cold 90% methanol and stored at −20° C. Fixed cells were centrifuged at 2000 rpm for 4 minutes to remove 90% methanol. Cells were washed with 200 μL of wash buffer and stained with 200 μL of propidium iodide (PI) overnight at 4° C. in the dark. Data was acquired and analyzed by flow cytomety (LSRII). A threshold gate was applied according to +4N (same as ≧4N) DNA content and SubG1 positive populations based on DMSO-treated control and low/high drug-treated groups. The data was represented as a percentage of +4N DNA and SubG1 positive subpopulations. The +4N (same as ≧4N) DNA content or SubG1 cellular EC50 values were calculated using a 4-parameter equation. Lung tumor cell lines were treated with control (DMSO), AMG 900 or taxol over a 6-point dose range for 24 hours. Flow cytometric-based cell cycle analysis was performed to measure the percentage of ≧4N DNA content or SubG1 DNA content positive cells. The dose-response curves for AMG 900 represent the drug concentration plotted against the percentage of ≧4N DNA content positive cells. The dose-response curves for taxol represent the drug concentration plotted against the percentage of SubG1 DNA content positive cells. The EC50 values were calculated by 4-parameter fit model.

In experiment [2] the test system is NCI-H460-Taxol-r. As to the kind of experiment: Cell cycle DNA content assay (flow cytometry). In kind it is cell-based. The settings on record: Homo sapiens, 24 h, Lung, Paclitaxel-selected, read-out: EC50 @ 24 hours, Sub G1. As for the experimental part:
as §1

Experiment [3] relates to MDA-MB-231. As to the kind of experiment: Cell cycle DNA content assay (flow cytometry). The settings on record: Homo sapiens, 24 h; MDA-MB-231, Breast, Parent line; read-out: EC50 @ 24 hours, Sub G1. In kind it is cell-based. As for the experimental part:
(§2) MDA-MB-231(F11)-luc parent and taxol-resistant cells were seeded at a density of 250,000 cells/well in a 12-well plate in 1 mL of in the appropriate media, in duplicates. The next day cells were treated with AMG 900 or taxol over a 10-point concentration range with a final DMSO concentration of 0.1% in taxol-free media. After 24 hours, cells were harvested with 1× trypsin-EDTA and transferred to PCR tubes. Cells were centrifuged at 2000 rpm for 4 minutes and the supernatant was aspirated. Cells were fixed in 200 μL of ice cold 90% methanol and stored at −20° C. for at least 24 hours. Fixed cells were centrifuged at 2000 rpm for 4 minutes to remove 90% methanol. Cells were washed with wash buffer and stained with 200 μL of propidium iodide (PI) for 30 minutes at 4° C. in the dark. An additional 400 μL of PI was added before data acquisition. Data was acquired and analyzed by flow cytometry (LSRII). A threshold gate was applied according to +4N (same as ≧4N) DNA content based on DMSO control and low/high drug-treated groups. The data was represented as percentage of control for +4N DNA content positive populations. The +4N DNA content cellular EC50 values were assigned using 4-parameter equation. […] Flow cytometric-based cell cycle analysis was performed to measure the percentage of ≧4N DNA content or SubG1 DNA content positive cells. The dose-response curves for AMG 900 represent the drug concentration plotted against the percentage of ≧4N DNA content positive cells. The dose-response curves for taxol represent the drug concentration plotted against the percentage of SubG1 DNA content positive cells. The EC50 values were calculated by 4-parameter fit model.

In experiment [4] the test system is MDA-MB-231-Taxol-r. The experiment is described as follows: Cell cycle DNA content assay (flow cytometry). In kind it is cell-based. The settings on record: Homo sapiens, 24 h, Breast, Paclitaxel-selected, read-out: EC50 @ 24 hours, Sub G1. As for the experimental part:
as §2

The subject of experiment [5] is HCT116 AZD1152-resistant. The experiment is described as follows: Colony formation assay (FIG. 6-B). In kind it is cell-based, human. The settings on record: both HCT116 cell lines (parental and AZD1152-resistant) compared. The procedure:
Tumor cell lines were obtained from the American Type Culture Collection (ATCC) unless otherwise specified. The MDA-MB-231-PTX and NCI-H460-PTX cell lines were established by growing the cells in the presence of increasing concentrations of paclitaxel over a period of 6 months. The HCT116 AZD1152-resistant cell line was established by growing the cells in the presence of AZD1152 at 80 nmol/L. Tumor cells were treated with AMG 900, paclitaxel or AZD1152 (0.5, 5, 50 nmol/L) for 48 hours, washed twice with complete media, and cells were re-plated at a density of 5000 cells per well in drug-free complete media. Cells were grown until the DMSO control wells were confluent. Cells were stained with crystal violet dye (Sigma), washed with distilled water, and imaged using a digital scanner (Hewlett-Packard). Colony formation assay was performed with HCT116 cell lines (parental and AZD1152-resistant). Cells were treated with DMSO, AMG 900, AZD1152, or paclitaxel at the indicated concentrations for 48 hours and re-plated in complete media lacking the inhibitor. After the DMSO-treated cells reached confluence, the cells were stained with crystal violet and imaged (duplicate wells).

In experiment [6] the test system is NCI-H460-taxol resistant tumor xenografts. The experiment is described as follows: Growth of established NCI-H460-taxol resistant xenografts (Example 4). In kind it is in vivo, athymic nude mice. Conditions: 12.5mpk IP QD 5 days/week × 2 wks. As for the experimental part:
To investigate whether AMG 900-induced suppression of aurora kinase activity inhibits cell proliferation, the antitumor efficacy of AMG 900 was evaluated in vivo against NCI-H460-taxol resistant tumor xenografts in athymic nude mice. Mice were dosed PO with AMG 900 (BID) either intermittently or continuously. Mice were dosed IP with paclitaxel (taxol) 5 days/week. An internal Amgen compound was used as a positive control in this study (data not shown). Tumors were measured twice per week. Treatment began on day 12 when the tumors were established. All groups were provided nutritional supplements on a daily basis throughout the study to maintain body weight. AMG 900 (free base) was formulated into suspension to concentrations of 1.5 and 0.3 mg/mL. […] The duration of the dosing phase for AMG 900 was three weeks, and two weeks for the taxol group. The tumors were measured with a digital caliper and the mice were weighed twice per week. Tumor volumes were calculated as follows: […] Tumor inhibition was calculated as follows: […] FIG. 5 illustrates the effects of AMG 900 and Taxol treatment on the growth of established H460-taxol resistant tumors. […] Tumors were measured twice per week. Treatment began 12 days after tumor implantation (arrow) when tumors were approximately 170 mm^3. Mice were dosed PO or IP once or twice daily for 3 weeks. Data represent mean ±SE for each group. *P values (not shown) correspond to statistical difference between groups treated with vehicle and AMG 900 or Taxol analyzed with repeated measure Sheffe's ANOVA over time using […]. The scheduled days listed in the legend represent days/ week. All groups were provided nutritional supplements throughout the study.

The subject of experiment [7] is MES-SA Dx5. The experiment is described as follows: p-Histone H3 assay (ArrayScan VTi). Conditions: Homo sapiens, 24 h; MES-SA Dx5, Uterine, Doxorubicin-selected, P-gp overexpressing. In kind it is cell-based. As for the experimental part:
(§3) MES-SA Dx5 and MES-SA cells were plated at a density of 10,000 cells/well onto 96-well plate in complete media and cultured for 24 hours. […] Cells were washed and fixed by adding 100 μL of 2× formaldehyde fixation buffer for 10 minutes and room temperature. […] Cells were immunostained with p-histone H3 antibody (5 μg/mL) and incubated at room temperature for 2 hours. Cells were washed in 100 μL of wash buffer. Next, cells were incubated with a goat anti-rabbit alexa-488 conjugated antibody (1.5 μg/mL) in wash buffer supplemented with Hoechest DNA dye (1 μg/mL) and incubated at room temperature in the dark for 30 minutes. Cells were washed twice with 100 μL of wash buffer. The 96-well plates were analyzed on an ArrayScan VTi (Cellomics) using a bioapplication algorithm (TargetActivation.V2). […] Cells were then fixed and stained with p-histone H3 antibody and counterstained with a DNA dye (Hoechest). Imaging-based analysis (ArrayScan VTi) was performed to measure the percentage of p-histone H3 positive cells. The dose-response curves represent either AMG 900 or taxol concentrations plotted against p-Histone H3 positive cells as a percentage of DMSO-treated control (POC). The EC50 values were calculated by 4-parameter fit model.

In experiment [8] the test system is MES-SA. As to the kind of experiment: p-Histone H3 assay (ArrayScan VTi). In kind it is cell-based. Conditions: Homo sapiens, 24 h, Uterine, Parent line. As for the experimental part: as §3

Molecules are shown by their SMILES. pEC50: −log10 of the molar value. Where “and” joins values, the source holds several entries; their conditions need not be identical. Equal values may be shown once.

As for `CC(=O)O[C@H]1C(=O)[C@@]2(C)[C@H]([C@H](OC(=O)c3ccccc3)[C@]3(O)C[C@H](OC(=O)[C@H](O)[C@@H](NC(=O)c4ccccc4)c4ccccc4)C(C)=C1C3(C)C)[C@]1(OC(C)=O)CO[C@@H]1C[C@@H]2O` [Paclitaxel, reference compound], the negative-log EC50 (pEC50) in experiment [1] is 8.00; in experiment [2] it was < 7.00; in experiment [3], 8.70; in experiment [4], 7.02; in experiment [7], < 5.90; in experiment [8], 8.00. Moreover, the “sensitivity in colony formation” value in experiment [5] was “equally sensitive”. Further, the “Tumor volume, Mean” value in experiment [6] was 1383 mm^3. For the same molecule, the “Tumor volume, Median” value in experiment [6] is reported as 1072.0 mm^3. In addition, the “% Inhibition (tumor growth)” value in experiment [6] (listed as Taxol) is 20% and 19.7%.

These data come from patent publication US20120028917A1, “Use Of N-(4-((3-(2-Amino-4-Pyrimidinyl)-2-Pyridinyl)Oxy)Phenyl)-4-(4-Methyl-2-Thienyl)-1-Phthalazinamine In The Treatment Of Antimitotic Agent Resistant Cancer” (Amgen Inc., priority 2009, published 2012).
